{"source": "patent US9527857B2", "about": "“HSPC-sparing treatments for RB-positive abnormal cellular proliferation” (G1 Therapeutics, Inc., priority 2013, dated 2016)", "key": {"[1]": {"tested_on": "MMTV-c-neu (Rb-positive) tumors", "assay": "MMTV-c-neu HER2-driven (Rb-positive) luminal breast cancer mouse model", "assay_type": "in vivo, mice", "text": "A HER2-driven model (Rb-positive) of breast cancer (Muller W J, Sinn E, Pattengale P K, Wallace R, Leder P. Single-step induction of mammary adenocarcinoma in transgenic mice bearing the activated c-neu oncogene. Cell 1988; 54: 105-15), that expresses c-neu (the mouse ortholog of human HER2) driven by the MMTV promoter was used in the following example. This model was chosen because previous studies in murine (Yu Q, Geng Y, Sicinski P. Specific protection against breast cancers by cyclin D1 ablation. Nature 2001; 411: 1017-21; Landis M W, Pawlyk B S, Li T, Sicinski P, Hinds P W. Cyclin D1-dependent kinase activity in murine development and mammary tumorigenesis. Cancer Cell 2006; 9: 13-22; Reddy H K, Mettus R V, Rane S G, Grana X, Litvin J, Reddy E P. Cyclin-dependent kinase 4 expression is essential for neu-induced breast tumorigenesis. Cancer Res 2005; 65: 10174-8; Yu Q, Sicinska E, Geng Y, Ahnstrom M, Zagozdzon A, Kong Y, et al. Requirement for CDK4 kinase function in breast cancer. Cancer Cell 2006; 9: 23-32.) and human HER2-positive breast cancer (An H X, Beckmann M W, Reifenberger G, Bender H G, Niederacher D. Gene amplification and overexpression of CDK4 in sporadic breast carcinomas is associated with high tumor cell proliferation. Am J Pathol 1999; 154: 113-8; Samady L, Dennis J, Budhram-Mahadeo V, Latchman DS. Activation of CDK4 gene expression in human breast cancer cells by the Brn-3b POU family transcription factor. Cancer Biol Ther 2004; 3: 317-23; Takano Y, Takenaka H, Kato Y, Masuda M, Mikami T, Saegusa M, et al. Cyclin D1 overexpression in invasive breast cancers: correlation with cyclin-dependent kinase 4 and oestrogen receptor overexpression, and lack of correlation with mitotic activity.\nMMTV-neu mice were generated and observed post-lactation, with tumors observed with a median latency of approximately 25 weeks. Mice were enrolled in therapy studies when tumors reached a standard size (50-60 mm3) that permitted easy serial assessment. […] Tumor volumes were calculated by the formula, Volume=[(width)^2×length]/2. Tumor-bearing mice were euthanized at the indicated times due to predefined morbidity, tumor ulceration, or a tumor size of more than 1.5 cm in diameter.\nTumors were serially assessed weekly using caliper measurements. Therapeutic intervention began once tumors reached 40-64 mm^3. Tumor volume was calculated using the formula […]. All three compounds were administered orally via medicated diets (100 mg/kg/d). Medicated diets were administered for 28 consecutive days and then stopped. RECIST criteria were used to assess objective response rates."}, "[2]": {"tested_on": "MCF7 (breast adenocarcinoma, Rb-positive)", "assay": "Cellular proliferation assay (CellTiter-Glo), MCF7", "assay_type": "cell-based", "protocol": "The MCF7 cells were seeded in Costar (Tewksbury, Mass.) 3903 96 well tissue culture treated white walled/clear bottom plates. A nine point dose response dilution series from 10 uM to 1 nM was performed and cell viability was determined after six days of compound treatment as indicated using the CellTiter-Glo® luminescent cell viability assay (CTG; Promega, Madison, Wis., United States of America) following the manufacturer's recommendations. Plates were read on a BioTek (Winooski, Vt.) Syngergy2 multi-mode plate reader. The Relative Light Units (RLU) were plotted as a result of variable molar concentration and data was analyzed using Graphpad (LaJolla, Calif.) Prism 5 statistical software to determine the EC50 for each compound.\nCellular proliferation assays were conducted using the following cancer cell lines: MCF7 (breast adenocarcinoma—Rb-positive), ZR-75-1 (breast ductal carcinoma—Rb-positive), H69 (human small cell lung cancer—Rb-negative) cells, or A2058 (human metastatic melanoma cells—Rb-negative). These cells were seeded in Costar (Tewksbury, Mass.) […] 96 well tissue culture treated white walled/clear bottom plates. Cells were treated with the compounds of Table 1 as nine point dose response dilution series from 10 uM to 1 nM. Cells were exposed to compounds and then cell viability was determined after either four (H69) or six (MCF7, ZR75-1, A2058) days as indicated using the CellTiter-Glo® luminescent cell viability assay (CTG; Promega, Madison, Wis., United States of America) following the manufacturer's recommendations. Plates were read on BioTek (Winooski, Vt.) Syngergy2 multi-mode plate reader. The Relative Light Units (RLU) were plotted as a result of variable molar concentration and data was analyzed using Graphpad (LaJolla, Calif.) Prism 5 statistical software to determine the EC50 for each compound."}, "[3]": {"tested_on": "tHS68 cells (CDK4/6-dependent, Rb-positive)", "assay": "Cell cycle arrest (propidium iodide flow cytometry), tHS68", "assay_type": "cell-based", "conditions": "24 hours", "text": "To test the ability of CDK4/6 inhibitors to induce a clean G1-arrest, a cell based screening method was used consisting of two CDK4/6-dependent cell lines (tHS68 and WM2664; Rb-positive) and one CDK4/6-independent (A2058; Rb-negative) cell line. […] At the conclusion of the experiment, cells were harvested, fixed, and stained with propidium iodide (a DNA intercalator), which fluoresces strongly red (emission maximum 637 nm) when excited by 488 nm light. Samples were run on Dako Cyan flow cytometer and >10,000 events were collected for each sample. Data were analyzed using FlowJo 2.2 software developed by TreeStar, Inc."}, "[4]": {"tested_on": "Rb phosphorylation at Ser780 and Ser807/811 in A2058", "assay": "Rb phosphorylation western blot, CDK4/6-independent cell line", "assay_type": "cell-based", "conditions": "300 nM; 4, 8, 16, 24 hours", "protocol": "MAPK levels are shown as a control for protein levels. Following treatment, cells were harvested and analyzed for Rb-phosphorylation by western blot analysis.\nThe CDK4/6-cyclin D complex is essential for progression from G1 to the S-phase of the DNA cell cycle. This complex phosphorylates the retinoblastoma tumor suppressor protein (Rb). […] Samples were lysed and protein was assayed by western blot analysis. Rb phosphorylation was measured at two sites targeted by the CDK4/6-cyclin D complex, Ser780 and Ser807/811 using species specific antibodies."}}, "data": [{"smiles": "CN1CCN(c2ccc(Nc3ncc4cc5n(c4n3)C3(CCCCC3)CNC5=O)nc2)CC1", "note": "[T]", "values": [{"measurement": "tumor volume during a 28 day course of therapy", "setting": "[1]; 100 mg/kg/d in chow, listed as Compound T", "result": "marked reduction in tumor volume"}, {"measurement": "tumor volume during a 28 day course of therapy", "setting": "[1]; 100 mg/kg/d in chow, listed as compound T", "result": "marked decrease in tumor volume"}, {"measurement": "objective response rate", "setting": "[1]; 100 mg/kg/day medicated diet, 28 days, RECIST criteria", "result": 100, "unit": "%"}, {"measurement": "tumor volume during a 28 day course of therapy", "setting": "[1]; 150 mg/kg/d in chow", "result": "marked reduction in tumor volume"}, {"measurement": "activity against MCF-7 cells compared with PD0332991 (FIG. 21)", "setting": "[2]", "result": "more potent activity against MCF-7 cells than PD0332991"}, {"measurement": "inhibition of cellular proliferation of MCF-7 cells (FIGS. 21-24)", "setting": "[2]", "result": "significant inhibition of cellular proliferation"}, {"measurement": "cell cycle distribution after treatment", "setting": "[3]; 300 nM, tHS68", "result": "causes a loss of the S-phase peak"}, {"measurement": "S-phase cells at the highest concentration shown", "setting": "[3]; tHS68 cells, 28% at baseline", "result": 6, "unit": "%"}, {"measurement": "Rb phosphorylation in CDK4/6-independent cells (A2058)", "setting": "[4]", "result": "no effect"}]}]}
